The results in this text go back to patent US10645930B2, “Fungicidal mixtures based on prothioconazole and a strobilurin derivative” (BASF SE, priority 2002, dated 2020).

In assay [1] the test system is Erysiphe [syn. Blumeria] graminis forma specialis. tritici. The assay can be described thus: Activity against mildew of wheat (protective, wheat seedlings cultivar Kanzler). In kind it is in vivo. Particulars: 7 days. The protocol: The active compounds, separately or together, were formulated as a 10% emulsion in a mixture of 63% by weight of cyclohexanone and 27% by weight of emulsifier, and diluted with water to the desired concentration. Evaluation was carried out by determining the infected leaf areas in percent. These percentages were converted into efficacies. The efficacy (W) was determined as follows using Abbot's formula: [formula] α corresponds to the fungal infection of the treated plants in % and β corresponds to the fungal infection of the untreated (control) plants in % An efficacy of 0 means that the infection level of the treated plants corresponds to that of the untreated control plants; an efficacy of 100 means that the treated plants were not infected. The expected efficacies of the mixtures of the active compounds were determined using Colby's formula [R. S. Colby, Weeds 15, 20-22 (1967)] and compared with the observed efficacies. E=x+y−x·y/100 Colby's formula: • E expected efficacy, expressed in % of the untreated control, when using the mixture of the active compounds A and B at the concentrations a and b • x efficacy, expressed in % of the untreated control, when using the active compound A at the concentration a • y efficacy, expressed in % of the untreated control, when using the active compound B at the concentration b Leaves of wheat seedlings of the cultivar “Kanzler” grown in pots were sprayed to runoff point with an aqueous preparation of active compound which had been prepared from a stock solution comprising 10% of active compound, 85% of cyclohexanone. and 5% of emulsifier, and, 24 hours after the spray coating had dried on, the leaves were dusted with spores of mildew of wheat (Erysiphe [syn. Blumeria] graminis forma specialis. tritici). The test plants were then placed in a greenhouse at 20-24° C. and 60-90% relative atmospheric humidity. After 7 days, the extent of the development of the mildew was determined visually in % infection of the entire leaf area. The visually determined values for the percentage of diseased leaf areas were converted into efficacies as % of the untreated control. An efficacy of 0 means the same disease level as in the untreated control, an efficacy of 100 means a disease level of 0%. The expected efficacies for the active compound combinations were determined using Colby's formula mentioned above and compared with the observed efficacies.

The subject of assay [2] is Puccinia recondita. The assay can be described thus: Curative activity against brown rust of wheat (wheat seedlings cultivar Kanzler). Particulars: 7 days. In kind it is in vivo. Here is the method: The active compounds, separately or together, were formulated as a 10% emulsion in a mixture of 63% by weight of cyclohexanone and 27% by weight of emulsifier, and diluted with water to the desired concentration. Evaluation was carried out by determining the infected leaf areas in percent. These percentages were converted into efficacies. The efficacy (W) was determined as follows using Abbot's formula: [formula] α corresponds to the fungal infection of the treated plants in % and β corresponds to the fungal infection of the untreated (control) plants in % An efficacy of 0 means that the infection level of the treated plants corresponds to that of the untreated control plants; an efficacy of 100 means that the treated plants were not infected. The expected efficacies of the mixtures of the active compounds were determined using Colby's formula [R. S. Colby, Weeds 15, 20-22 (1967)] and compared with the observed efficacies. E=x+y−x·y/100 Colby's formula: • E expected efficacy, expressed in % of the untreated control, when using the mixture of the active compounds A and B at the concentrations a and b • x efficacy, expressed in % of the untreated control, when using the active compound A at the concentration a • y efficacy, expressed in % of the untreated control, when using the active compound B at the concentration b Leaves of wheat seedlings of the cultivar “Kanzler” grown in pots were dusted with spores of brown rust (Puccinia recondita). The pots were then placed in a chamber with high atmospheric humidity (90-95%), at 20-22° C. for 24 hours. During this time, the spores germinated and the germinal tubes penetrated into the leaf tissue. The next day, the infected plants were sprayed to runoff point with an aqueous formulation of active compound prepared from a stock solution comprising 10% of active compound, 85% of cyclohexanone and 5% of emulsifier. After the spray coating had dried on, the test plants were cultivated in a greenhouse at 20-22° C. and 65-70% relative atmospheric humidity for 7 days. Thereafter, the extent of the rust fungus development on the leaves was determined. The visually determined values for the percentage of diseased leaf areas were converted into efficacies as % of the untreated control. An efficacy of 0 means the same disease level as in the untreated control, an efficacy of 100 means a disease level of 0%. The expected efficacies for the combinations of active compounds were determined using Colby's formula mentioned above and compared with the observed efficacies.

The mark [3] stands for this setting: 0.015 ppm active compound in the spray liquor.
Where [4] appears, read: 0.06 ppm active compound in the spray liquor.
[5] abbreviates: 0.25 ppm active compound in the spray liquor.
Where [6] appears, read: 1 ppm active compound in the spray liquor.
[7] abbreviates: 4 ppm active compound in the spray liquor.

For `OC(Cc1ccccc1Cl)(Cn1nc[nH]c1=S)C1(Cl)CC1` (centres unmarked) [Compound I, 2-[2-(1-chlorocyclopropyl)-3-(2-chlorophenyl)-2-hydroxypropyl]-2,4-dihydro-[1,2,4]-triazole-3-thione], the “Efficacy in % of the untreated control” value in assay [1] (setting [3]) is recorded as 0 % of the untreated control; in assay [1] (setting [4]), 0 % of the untreated control; in assay [1] (setting [5]) it was 0 % of the untreated control; in assay [1] (setting [6]) it was 0 % of the untreated control; in assay [1] (setting [7]), 22 % of the untreated control; in assay [2] (0.006 ppm active compound in the spray liquor) it was 0 % of the untreated control. For the same molecule, the “Efficacy in % of the untreated control” value in assay [2] (setting [3]), in assay [2] (setting [5]) and in assay [2] (setting [6]) was 0 % of the untreated control in each case.

Take `CO/N=C(/C(=O)OC)c1ccccc1CO/N=C(\C)c1cccc(C(F)(F)F)c1` [Compound II, trifloxystrobin]: the “Efficacy in % of the untreated control” value in assay [1] (setting [4]) is on record as 0 % of the untreated control; in assay [1] (setting [5]), 22 % of the untreated control; in assay [1] (setting [6]) it was 44 % of the untreated control; in assay [1] (setting [7]), 83 % of the untreated control; in assay [2] (setting [4]) it was 0 % of the untreated control; in assay [2] (setting [5]), 0 % of the untreated control.

As to `CO/C=C(/C(=O)OC)c1ccccc1COc1cccc(C(F)(F)F)n1` [Compound III, picoxystrobin], the “Efficacy in % of the untreated control” value in assay [1] (setting [5]) is reported as 11 % of the untreated control; in assay [2] (setting [4]), 0 % of the untreated control; in assay [2] (setting [5]) it was 0 % of the untreated control; in assay [2] (setting [6]), 33 % of the untreated control.

With `COC(=O)N(OC)c1ccccc1COc1ccn(-c2ccc(Cl)cc2)n1` [Compound IV, pyraclostrobin], the “Efficacy in % of the untreated control” value in assay [1] (setting [5]), in assay [1] (setting [6]), in assay [2] (setting [4]) and in assay [2] (setting [5]) was 0 % of the untreated control each time.
